# Assays:
# [1] = test system: hepatic cytochrome P450 3A (CYP3A) activity; assay: Example 3: IV midazolam probe for CYP3A activity at a range of RTV doses
# Procedure: (§1) The effects of a range of RTV doses (20, 50, 100, and 200 mg once daily) on hepatic cytochrome P450 3A (CYP3A) activity were also evaluated using a CYP3A substrate.
# (§2) For MDZ: AUC0-last, AUCinf, % AUCexp, Clast, Tlast, λ, T1/2, CL and Vz.
# (§3) The population mean slope was estimated along with a corresponding 90% CI. This study was performed in compliance with the guidelines of Good Clinical Practices (GCPs).
# CYP3A (hepatic) = assay: as above; conditions: human, plasma, iv, probe midazolam; for AUC(0-inf): AUCinf (mean); for clearance: CL (mean); for half-life: Half-life (mean)
# Procedure: as §1, §2, §3
# [2] = Example 3: pharmacokinetics of Compound 1 and RTV at a range of RTV doses; conditions: RTV in plasma, mean (CV %); for AUC / Cmax / half-life: both, human; for AUC: AUCtau
# [3] = Example 1: pharmacokinetics of Compound 1 alone and with RTV in healthy subjects; assay type: in vivo, human
# Description: The study was an open-label, fixed-sequence, crossover, pharmacokinetic study with 12 subjects. The subjects were healthy males and non-pregnant, nonlactating females between 18 and 45 years of age, inclusive. The duration of the study was 20 days, with Period 1 of Days 1 to 10 and Period 2 of days 11 to 20. Follow-up contact was on day 27.
# [4] = both, human, in vivo
# [5] = Example 5: drug-drug interaction of zidovudine and Compound 1/r
# Description: (§4) Zidovudine is a NRTI used in HIV patients.
# (§5) PK parameters were estimated using WinNonlin™ 5.0.1 (Pharsight Corporation, Mountain View, Calif., USA).
# [6] = Example 5: safety of zidovudine and Compound 1/r; assay type: in vivo, human
# Description: as §4, §5
# [7] = plasma, oral, Compound 1 125 mg + 20 mg RTV QD
# [8] = plasma, oral, Compound 1 125 mg + 50 mg RTV QD
# [9] = plasma, oral, Compound 1 125 mg + 200 mg RTV QD
structure (smiles),measurement,setting,value
"Cc1ncc2n1-c1ccc(Cl)cc1C(c1ccccc1F)=NC2 [MDZ, midazolam]",Clast (mean),[1]; MDZ 1 mg IV alone,0.20 ng/mL
same,Clast (mean),"[1]; MDZ 1 mg IV, +20 mg RTV",1.53 ng/mL
same,Clast (mean),"[1]; MDZ 1 mg IV, +50 mg RTV",2.51 ng/mL
same,Clast (mean),"[1]; MDZ 1 mg IV, +100 mg RTV",3.34 ng/mL
same,Clast (mean),"[1]; MDZ 1 mg IV, +200 mg RTV",2.58 ng/mL
same,AUC(0-inf),"CYP3A (hepatic); 1 mg, MDZ 1 mg IV alone, Day 1",31 ng·h/mL
same,clearance,"CYP3A (hepatic); 1 mg, MDZ 1 mg IV alone",7.45 mL/min/kg
same,half-life,"CYP3A (hepatic); 1 mg, MDZ 1 mg IV alone",3.97 h
same,AUC(0-inf),"CYP3A (hepatic); MDZ 1 mg IV, +20 mg RTV QD (with Compound 1 125 mg)",101 ng·h/mL
same,AUC(0-inf),"CYP3A (hepatic); MDZ 1 mg IV, +50 mg RTV QD (with Compound 1 125 mg)",145 ng·h/mL
same,AUC(0-inf),"CYP3A (hepatic); MDZ 1 mg IV, +100 mg RTV QD (with Compound 1 125 mg)",219 ng·h/mL
same,AUC(0-inf),"CYP3A (hepatic); MDZ 1 mg IV, +200 mg RTV QD (with Compound 1 125 mg)",146 ng·h/mL
same,clearance,"CYP3A (hepatic); MDZ 1 mg IV, +20 mg RTV",2.38 mL/min/kg
same,clearance,"CYP3A (hepatic); MDZ 1 mg IV, +50 mg RTV",1.5 mL/min/kg
same,clearance,"CYP3A (hepatic); MDZ 1 mg IV, +100 mg RTV",1.2 mL/min/kg
same,clearance,"CYP3A (hepatic); MDZ 1 mg IV, +200 mg RTV",1.45 mL/min/kg
same,half-life,"CYP3A (hepatic); MDZ 1 mg IV, +20 mg RTV",7.83 h
same,half-life,"CYP3A (hepatic); MDZ 1 mg IV, +50 mg RTV",14.4 h
same,half-life,"CYP3A (hepatic); MDZ 1 mg IV, +100 mg RTV",22.4 h
same,half-life,"CYP3A (hepatic); MDZ 1 mg IV, +200 mg RTV",15.2 h
"CC(C)c1nc(CN(C)C(=O)N[C@H](C(=O)N[C@@H](Cc2ccccc2)C[C@H](O)[C@H](Cc2ccccc2)NC(=O)OCc2cncs2)C(C)C)cs1 [Ritonavir, (2S,3S,5S)-5-(N-(N-((N-Methyl-N-((2-isopropyl-4-thiazolyl)methyl)amino)-carbonyl)-L-valinyl)amino)-2-(N-((5-thiazolyl)methoxycarbonyl)amino)-1,6-diphenyl-3-hydroxyhexane, reference compound]",Ctau,[2]; Compound 1 125 mg + 20 mg RTV QD,0.718 (98.8) ng/ml
same,Ctau,[2]; Compound 1 125 mg + 50 mg RTV QD,11.6 (66.2) ng/ml
same,Ctau,[2]; Compound 1 125 mg + 100 mg RTV QD,53.8 (41.6) ng/ml
same,Ctau,[2]; Compound 1 125 mg + 200 mg RTV QD,78.5 (36.7) ng/ml
same,AUC,"[2]; in vivo, Compound 1 125 mg + 100 mg RTV QD",6550 ng·h/mL
same,AUC,[2]; [7],135 ng·h/mL
same,AUC,[2]; [8],1120 ng·h/mL
same,AUC,[2]; [9],16000 ng·h/mL
same,Cmax,[2]; [7],19.5 ng/mL
same,Cmax,[2]; [8],130 ng/mL
same,Cmax,[2]; [9],2460 ng/mL
same,half-life,[2]; [7],4.74 h
same,half-life,[2]; [8],6.54 h
same,half-life,"[2]; plasma, oral, Compound 1 125 mg + 100 mg RTV QD",6.34 h
same,half-life,[2]; [9],5.71 h
same,half-life,"[3]; both sexes, human, plasma, oral, 100 mg, ritonavir in plasma, Day 11, single dose RTV 100 mg with Compound 1, median",5.1 h
same,AUC(0-inf),"[3]; both sexes, human, plasma, oral, 100 mg, read-out: AUC (AUCinf)",4980 ng·h/mL
same,AUC,"[3]; both sexes, human, plasma, oral, ritonavir in plasma, Day 20, RTV 100 mg + Compound 1 100 mg twice daily, mean, read-out: AUC (AUCtau)",9400 ng·h/mL
same,Ctau,"[3]; ritonavir in plasma, Day 11, single dose RTV 100 mg with Compound 1, mean",219.8 ng/mL
same,Ctau,"[3]; ritonavir in plasma, Day 20, RTV 100 mg + Compound 1 100 mg twice daily, mean",544.8 ng/mL
same,Dose proportionality of RTV exposures,[4],"RTV exposures not dose-proportional, very low exposures at 20 mg with BLQ concentrations (<0.5 ng/ml) by 16 hr in some subjects"
"Cc1cn([C@H]2C[C@H](N=[N+]=[N-])[C@@H](CO)O2)c(=O)[nH]c1=O [ZDV, zidovudine]","AUCtau, Cmax, Ctau (Compound 1 only) 90% CI of GMR (co-administration: alone)","[5]; Compound 1/r 200/100 mg QD + ZDV 300 mg BID, with a meal, bounds 70% to 143%",within predefined PK equivalence bounds
same,Pharmacokinetic drug-drug interaction,[5]; in vivo,no clinically relevant pharmacokinetic drug-drug interaction
same,Tolerability,"[6]; Compound 1/r 200/100 mg QD and ZDV 300 mg BID, alone and in combination",generally well tolerated
same,Safety of co-administration,[6]; zidovudine co-administered with Compound 1/r,safe and well tolerated

# Reference: patent US20070219243A1, “Method for improving the pharmacokinetics of HIV integrase inhibitors” (priority 2005, published 2007)
